Results taken from patent US20060069132A1, “Azolecarboxamide herbicides” (priority 2004, published 2006).

Tests used:
velvetleaf = test: Test A pre-/postemergence herbicide test; assay type: in vivo, Abutilon theophrasti
Summary of the method: (§1)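 Sandy loam soil given preemergence directed spray; plants at 2 to 10 cm, one- to two-leaf stage, sprayed to runoff postemergence, compounds in non-phytotoxic solvent with surfactant. Injury rated visually versus untreated controls after about ten greenhouse days, 0 (no effect) to 100 (complete control); dash means not tested.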

lambsquarters = test: Test C pre-/postemergence herbicide test; assay type: in vivo, Chenopodium album
Summary of the method: (§2)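 Preemergence: seeds planted and treated with compound in non-phytotoxic solvent with surfactant; postemergence: plants at 2 to 18 cm (1- to 4-leaf stage) sprayed likewise. Kept in greenhouse 12 to 14 days, then visually rated against controls, 0 (no effect) to 100 (complete control).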

barnyardgrass = test: Test A pre-/postemergence herbicide test; assay type: in vivo, Echinochloa crus-galli
Summary of the method: as §1

johnsongrass = test: Test C pre-/postemergence herbicide test; assay type: in vivo, Sorghum halepense
Summary of the method: as §2

kochia = test: Test C pre-/postemergence herbicide test; assay type: in vivo, Kochia scoparia
Summary of the method: as §2

giant foxtail = test: Test A pre-/postemergence herbicide test; assay type: in vivo, Setaria faberi
Summary of the method: as §1

large crabgrass [1] = test: Test A pre-/postemergence herbicide test; assay type: in vivo, Digitaria sanguinalis
Summary of the method: as §1

corn = test: Test C pre-/postemergence herbicide test; assay type: in vivo, Zea mays
Summary of the method: as §2

woolly cupgrass = test: Test C pre-/postemergence herbicide test; assay type: in vivo, Eriochloa villosa
Summary of the method: as §2

large crabgrass [2] = test: Test C pre-/postemergence herbicide test; assay type: in vivo, Digitaria sanguinalis
Summary of the method: as §2

[3] = Postemergence, 2000 g ai/ha, 0 to 100 scale, 0 no effect, 100 complete control
[4] = Preemergence, 500 g ai/ha, visual rating, 0 to 100 scale (0 no effect, 100 complete control)
[5] = Preemergence, 2000 g ai/ha, 0 to 100 scale, 0 no effect, 100 complete control
[6] = 31 g ai/ha, preemergence, scale 0 to 100
[7] = 125 g ai/ha, scale 0 (no effect) to 100 (complete control), visual, 12 to 14 days, preemergence
[8] = 250 g ai/ha, scale 0 to 100 (0 no effect, 100 complete control), visual, 12 to 14 days, preemergence
[9] = Postemergence, 250 g ai/ha, scale 0 to 100, 0 no effect, 100 complete control
[10] = postemergence, 125 g ai/ha, scale 0 to 100
[11] = postemergence, 62 g ai/ha, scale 0 to 100
[12] = Postemergence, 500 g ai/ha, 0 to 100 scale, 0 no effect, 100 complete control
[13] = Postemergence, 500 g ai/ha, scale 0 to 100

CCn1nc(C(C)(C)C)cc1C(=O)Nc1ccc(F)c(C(=O)NCCF)c1 [Compound 60]
Plant response rating, Velvetleaf (velvetleaf; [3]): 20 | Velvetleaf plant response rating (velvetleaf; [4]): 65 | Velvetleaf plant response rating (velvetleaf; [5]): 95 | Plant response rating, Lambsquarters (lambsquarters; [6]): 90 | Plant response rating (0 = no effect, 100 = complete control), Lambsquarters (lambsquarters; 62 g ai/ha, preemergence): 100 | Plant response rating, Lambsquarters (lambsquarters; [7]): 100 | Plant response rating, Lambsquarters (lambsquarters; [8]): 100 | Plant response rating, Lambsquarters (lambsquarters; [9]): 70 | Plant response rating, Lambsquarters (lambsquarters; [10]): 30 | Plant response rating, Lambsquarters (lambsquarters; [11]): 10 | Plant response rating, Barnyardgrass (barnyardgrass; [12]): 35 | Plant response rating, Barnyardgrass (barnyardgrass; [3]): 70 | Barnyardgrass plant response rating (barnyardgrass; [4]): 50 | Barnyardgrass plant response rating (barnyardgrass; [5]): 85 | Plant response rating, Johnsongrass (johnsongrass; [6]): 5 | Plant response rating (0 = no effect, 100 = complete control), Johnsongrass (johnsongrass; 62 g ai/ha, preemergence): 10 | Plant response rating, Johnsongrass (johnsongrass; [7]): 50 | Plant response rating, Johnsongrass (johnsongrass; [8]): 60 | Plant response rating, Johnsongrass (johnsongrass; [9]): 0 | Plant response rating, Johnsongrass (johnsongrass; [10]): 0 | Plant response rating, Johnsongrass (johnsongrass; [11]): 0 | Plant response rating, Kochia (kochia; [6]): 80 | Plant response rating (0 = no effect, 100 = complete control), Kochia (kochia; 62 g ai/ha, preemergence): 80 | Plant response rating, Kochia (kochia; [7]): 90 | Plant response rating, Kochia (kochia; [8]): 90 | Plant response rating, Kochia (kochia; [9]): 20 | Plant response rating, Kochia (kochia; [10]): 20 | Plant response rating, Kochia (kochia; [11]): 10 | Plant response rating, Foxtail, Giant (giant foxtail; [12]): 30 | Plant response rating, Foxtail, Giant (giant foxtail; [3]): 60 | Foxtail, Giant plant response rating (giant foxtail; [4]): 55 | Foxtail, Giant plant response rating (giant foxtail; [5]): 90 | Plant response rating, Crabgrass, Large (large crabgrass [1]; [12]): 20 | Plant response rating, Crabgrass, Large (large crabgrass [1]; [3]): 55 | Crabgrass, Large plant response rating (large crabgrass [1]; [4]): 75 | Crabgrass, Large plant response rating (large crabgrass [1]; [5]): 95 | Plant response rating, Corn (corn; [6]): 0 | Plant response rating (0 = no effect, 100 = complete control), Corn (corn; 62 g ai/ha, preemergence): 0 | Plant response rating, Corn (corn; [7]): 0 | Plant response rating, Corn (corn; [8]): 0 | Plant response rating, Corn (corn; [9]): 0 | Plant response rating, Corn (corn; [10]): 0 | Plant response rating, Corn (corn; [11]): 0 | Plant response rating, Cupgrass, Woolly (woolly cupgrass; [6]): 0 | Plant response rating (0 = no effect, 100 = complete control), Cupgrass, Woolly (woolly cupgrass; 62 g ai/ha, preemergence): 0 | Plant response rating, Cupgrass, Woolly (woolly cupgrass; [7]): 10 | Plant response rating, Cupgrass, Woolly (woolly cupgrass; [8]): 70 | Plant response rating, Cupgrass, Woolly (woolly cupgrass; [9]): 5 | Plant response rating, Cupgrass, Woolly (woolly cupgrass; [10]): 5 | Plant response rating, Cupgrass, Woolly (woolly cupgrass; [11]): 0 | Plant response rating, Crabgrass, Large (large crabgrass [2]; [6]): 80 | Plant response rating (0 = no effect, 100 = complete control), Crabgrass, Large (large crabgrass [2]; 62 g ai/ha, preemergence): 90 | Plant response rating, Crabgrass, Large (large crabgrass [2]; [7]): 90 | Plant response rating, Crabgrass, Large (large crabgrass [2]; [8]): 95 | Plant response rating, Crabgrass, Large (large crabgrass [2]; [9]): 5 | Plant response rating, Crabgrass, Large (large crabgrass [2]; [10]): 0 | Plant response rating, Crabgrass, Large (large crabgrass [2]; [11]): 0

C#CCOC(=O)c1cccc(NC(=O)c2cc(C(C)(C)C)nn2CC)c1 [Compound 84]
Velvetleaf plant response rating (velvetleaf; [12]): 20 | Plant response rating, Velvetleaf (velvetleaf; [3]): 20 | Velvetleaf plant response rating (velvetleaf; [4]): 0 | Velvetleaf plant response rating (velvetleaf; Preemergence, 2000 g ai/ha, visual rating, 0 to 100 scale (0 no effect, 100 complete control)): 0 | Lambsquarters plant response rating (lambsquarters; [13]): 50 | Plant response rating, Lambsquarters (lambsquarters; [9]): 0 | Plant response rating, Lambsquarters (lambsquarters; [10]): 0 | Plant response rating, Lambsquarters (lambsquarters; [11]): 0 | Barnyardgrass plant response rating (barnyardgrass; [12]): 15 | Plant response rating, Barnyardgrass (barnyardgrass; [3]): 10 | Barnyardgrass plant response rating (barnyardgrass; [4]): 0 | Barnyardgrass plant response rating (barnyardgrass; [5]): 0 | Johnsongrass plant response rating (johnsongrass; [13]): 0 | Plant response rating, Johnsongrass (johnsongrass; [9]): 0 | Plant response rating, Johnsongrass (johnsongrass; [10]): 0 | Plant response rating, Johnsongrass (johnsongrass; [11]): 0 | Kochia plant response rating (kochia; [13]): 80 | Plant response rating, Kochia (kochia; [9]): 10 | Plant response rating, Kochia (kochia; [10]): 0 | Plant response rating, Kochia (kochia; [11]): 0 | Foxtail, Giant plant response rating (giant foxtail; [12]): 15 | Plant response rating, Foxtail, Giant (giant foxtail; [3]): 10 | Foxtail, Giant plant response rating (giant foxtail; [4]): 0 | Foxtail, Giant plant response rating (giant foxtail; [5]): 0 | Crabgrass, Large plant response rating (large crabgrass [1]; [12]): 20 | Plant response rating, Crabgrass, Large (large crabgrass [1]; [3]): 20 | Crabgrass, Large plant response rating (large crabgrass [1]; [4]): 0 | Crabgrass, Large plant response rating (large crabgrass [1]; [5]): 0 | Corn plant response rating (corn; [13]): 0 | Plant response rating, Corn (corn; [9]): 0 | Plant response rating, Corn (corn; [10]): 0 | Plant response rating, Corn (corn; [11]): 0 | Cupgrass, Woolly plant response rating (woolly cupgrass; [13]): 0 | Plant response rating, Cupgrass, Woolly (woolly cupgrass; [9]): 0 | Plant response rating, Cupgrass, Woolly (woolly cupgrass; [10]): 0 | Plant response rating, Cupgrass, Woolly (woolly cupgrass; [11]): 0 | Crabgrass, Large plant response rating (large crabgrass [2]; [13]): 50 | Plant response rating, Crabgrass, Large (large crabgrass [2]; [9]): 0 | Plant response rating, Crabgrass, Large (large crabgrass [2]; [10]): 0 | Plant response rating, Crabgrass, Large (large crabgrass [2]; [11]): 0
